Measurements reported in patent publication US20120245180A1, “COMBINATION” (GlaxoSmithKline LLC, priority 2009, published 2012).
Where two headings read alike, the source gives them in different places. One block for each molecule: values may come before it.

Columns and labels:
Assay in all cases: Cell growth inhibition assay, breast tumor cell line (Cell Titer Glo)
Assay type in all cases: cell-based
MDA-MB-175-VII = conditions: Homo sapiens, 72 h, MDA-MB-175-VII (HER2−), 3 days
Experimental: (§1) Human tumor cell lines from hepatocellular carcinoma (HCC), C3A, Hep3B, HepG2, PLC/PRF/5, SNU182, SNU387, SNU398, SNU423, SNU449 and SNU475 were purchased from the ATCC. Human breast tumor cell lines, HCC2218, HCC1419, BT-474, SK-BR-3, UACC893, JIMT-1, MDA-MB-361, HCC202, MDA-MB-175-VII, HCC1569, HCC1937, HCC38, MDA-MB-157, HCC1954, HCC1500, BT483, KPL-1, SUM225 and ZR-75-1 from ATCC, SUM52 and SUM190 from Asterand, PLC (Detroit Mich.), were cultured in RPMI 1640 medium containing 10% FBS; SKBR3-W13 and BT-474-J4 cultured in RPMI 1640 medium containing 10% FBS and 1 μM lapatinib; KPL4 line was kindly provided by Dr Junichi Kurebayashi (Kawasaki Medical School, Okayama, Japan) and cultured in DMEM containing 5% FBS. JIMT-1 from European Collection of Cell Cultures (UK), is a line derived from a patient clinically resistant to trastuzumab (Herceptin®). SK-BR-3-W13 is a single cell clone isolated by a cloning cylinder after a single treatment of SK-BR-3 cells with 0.5 μM lapatinib. BT-474-J4 is a single cell clone derived from a pool of BT-474 cells that were selected to grow in lapatinib to a concentration of 3 μM.
(§2) Cells were seeded in a 96-well tissue culture plate (NUNC 136102) of RPMI medium containing 10% FBS at 500-2,000 cells per well. Approximately 24 hours after plating, cells were exposed to ten, two-fold or three-fold serial dilutions of either Compound A or B or the combination of the two agents at a 2:1 molar ratio (Compounds A and B respectively). In some cases, cells were grown in RPMI media containing 10% FBS and in the presence or absence of 2 ng/mL hepatocyte growth factor (HGF). Cells were incubated in the presence of compounds for 3 days. ATP levels were determined by adding Cell Titer Glo® (Promega) according to the manufacturer's protocol. Briefly, Cell Titer Glo® was added to each plate, incubated for 20 minutes then luminescent signal was read on the SpectraMax L plate reader with a 0.5 sec integration time. All assays were run at least in duplicate.
(§3) Inhibition of cell growth was estimated after treatment with compound or combination of compounds for three days and comparing the signal to cells treated with vehicle (DMSO). Cell growth was calculated relative to vehicle (DMSO) treated control wells. Concentration of compound that inhibits 50% of control cell growth (IC50) was back-interpolated when y=50% of DMSO treated control wells using nonlinear regression with the equation: […]
(§4) where A is the minimum response (ymin), B is the maximum response (Ymax), C is the inflection point of the curve (EC50) and D is the Hill coefficient.
(§5) Combination effects on potency were evaluated using the Combination Index (CI) and Excess Over Highest Single Agent (EHOSA) methods.
(§6) DNA Copy number data on the HER2 gene was collected for all breast cancer cell lines using the Affymetrix 500K chip (Affymetrix Inc, Sunnyvale, Calif.). Briefly DNA was extracted from each line, digested with the restriction enzyme Nsp or Sty, ligated to an adaptor and amplified by PCR. After PCR, DNA was fragmented, labeled, denatured, and hybridized to the Affymetrix 500K chip. Upon completion of hybridization, each assay was washed and stained. Image data were acquired. Similarly collected data from a panel 10 diploid non-tumorigenic lymphoblastic cell lines were used to calculate DNA copy number. All ‘SNP Chip’ images ('CEL files'), were extracted, read and normalized using the dChip software package (Lin et al. 2004. Bioinformatics. 20:1233-40). SNP-wise ‘copy-number ratios’ (log2 scale) were calculated for all cancer cell lines using the lymphoblastic reference panel and analyzed by circular binary segmentation to reduce noise (Olshen et al. 2004. Biostatistics. 5:557-72). Cell lines with log2 ratios of HER2>0.65 were considered HER2+.

HCC1569 = conditions: Homo sapiens, 72 h, HCC1569 (HER2−), 3 days
Experimental: as §1, §2, §3, §4, §5, §6

HCC2218 = conditions: Homo sapiens, 72 h, HCC2218 (HER2+), 3 days
Experimental: as §1, §2, §3, §4, §5, §6

HCC1500 = conditions: Homo sapiens, 72 h, HCC1500 (HER2−), 3 days
Experimental: as §1, §2, §3, §4, §5, §6

HCC38 = conditions: Homo sapiens, 72 h, HCC38 (HER2−), 3 days
Experimental: as §1, §2, §3, §4, §5, §6

HCC1954 = conditions: Homo sapiens, 72 h, HCC1954 (HER2+), 3 days
Experimental: as §1, §2, §3, §4, §5, §6

HCC1937 = conditions: Homo sapiens, 72 h, HCC1937 (HER2−), 3 days
Experimental: as §1, §2, §3, §4, §5, §6

HCC202 = conditions: Homo sapiens, 72 h, HCC202 (HER2+), 3 days
Experimental: as §1, §2, §3, §4, §5, §6

MDA-MB-157 = conditions: Homo sapiens, 72 h, MDA-MB-157 (HER2−), 3 days
Experimental: as §1, §2, §3, §4, §5, §6

SUM190 = conditions: Homo sapiens, 72 h, SUM190 (HER2+), 3 days
Experimental: as §1, §2, §3, §4, §5, §6

JIMT-1 = conditions: Homo sapiens, 72 h, JIMT-1 (HER2+), 3 days
Experimental: as §1, §2, §3, §4, §5, §6

ZR-75-1 = conditions: Homo sapiens, 72 h, ZR-75-1 (HER2−), 3 days
Experimental: as §1, §2, §3, §4, §5, §6

KPL4 = conditions: Homo sapiens, 72 h, KPL4 (HER2+), 3 days
Experimental: as §1, §2, §3, §4, §5, §6

[1] = read-out: Single agent IC50, Compound A
[2] = read-out: Single agent IC50, Compound B

IC50 (MDA-MB-175-VII; [1]): 99 ± 97 nM
IC50 (HCC1569; [1]): > 1000 nM
IC50 (HCC2218; [1]): > 1000 nM
IC50 (HCC1500; [1]): > 1000 nM
IC50 (HCC38; [1]): > 1000 nM
IC50 (HCC1954; [1]): 1020 ± 839 nM
IC50 (HCC1937; [1]): > 1000 nM
IC50 (HCC202; [1]): > 1000 nM
IC50 (MDA-MB-157; [1]): > 1000 nM
IC50 (SUM190; [1]): > 1000 nM
IC50 (JIMT-1; [1]): > 1000 nM
IC50 (ZR-75-1; [1]): > 1000 nM
IC50 (KPL4; [1]): > 1000 nM
Compound: CC(=O)Nc1cccc(-n2c(=O)n(C3CC3)c(=O)c3c(Nc4ccc(I)cc4F)n(C)c(=O)c(C)c32)c1 [Compound A, N-{3-[3-cyclopropyl-5-[(2-fluoro-4-iodophenyl)amino]-6,8-dimethyl-2,4,7-trioxo-3,4,6,7-tetrahydropyrido[4,3-d]pyrimidin-1(2H)-yl]phenyl}acetamide]

IC50 (MDA-MB-175-VII; [2]): 7 ± 1 nM
IC50 (HCC1569; [2]): 76 ± 42 nM
IC50 (HCC2218; [2]): 18 ± 13 nM
IC50 (HCC1500; [2]): 61 ± 36 nM
IC50 (HCC38; [2]): 95 ± 34 nM
IC50 (HCC1954; [2]): 11 ± 3 nM
IC50 (HCC1937; [2]): 114 ± 63 nM
IC50 (HCC202; [2]): 45 ± 4 nM
IC50 (MDA-MB-157; [2]): > 1000 nM
IC50 (SUM190; [2]): 6 ± 3 nM
IC50 (JIMT-1; [2]): 28 ± 5 nM
IC50 (ZR-75-1; [2]): 6 ± 1 nM
IC50 (KPL4; [2]): 3 ± 1 nM
Compound: COc1ncc(-c2ccc3nccc(-c4ccnnc4)c3c2)cc1NS(=O)(=O)c1ccc(F)cc1F [Compound B, 2,4-difluoro-N-{2-(methyloxy)-5-[4-(4-pyridazinyl)-6-quinolinyl]-3-pyridinyl}benzenesulfonamide]
